Target: T1, human MAGL (His-hMAGL) (Homo sapiens, UniProt Q99685)
T1 construct: made in house; host or cells: Escherichia coli BL21(DE3)
T1 sequence (Q99685 1-303): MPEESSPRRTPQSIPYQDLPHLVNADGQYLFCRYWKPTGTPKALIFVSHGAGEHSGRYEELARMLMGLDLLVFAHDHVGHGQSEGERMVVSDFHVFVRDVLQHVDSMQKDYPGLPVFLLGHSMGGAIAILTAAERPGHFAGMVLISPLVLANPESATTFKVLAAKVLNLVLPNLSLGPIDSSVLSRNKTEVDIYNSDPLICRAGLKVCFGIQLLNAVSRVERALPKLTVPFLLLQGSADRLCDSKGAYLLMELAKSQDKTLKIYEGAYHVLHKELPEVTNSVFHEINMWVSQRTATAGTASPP
Experiment: Measurement of MAGL inhibitory activity by absorbance
Format: biochemical
Conditions: 10 μM test compound; substrate p-nitrophenyl acetate, absorbance at 405 nm
Excerpt: (1) Cloning of Human MGLL Encoding MAGL Protein and Construction of Expression Plasmid
Human MGLL cDNA was obtained by PCR using human ORF Clone (DNAForm; Clone ID: 100004585) as a template. For PCR, two kinds of primers: […]
The obtained PCR product was digested with Bam HI and Not I (Takara Bio Inc.), inserted into the Bam HI/Not I site of pET21HH(V) (pET21a (Novagen) inserted with His x6 and TEV Protease recognition sequence) by using Ligation High (Toyobo Co., Ltd.), and introduced into ECOS™ JM109 (Nippon Gene Co., Ltd.), whereby expression plasmid pET21HH(V)/His-hMGLLv2 for Escherichia coli was constructed. (2) Preparation of Recombinant Polyhistidine Tagged Human MAGL Protein
Recombinant His-hMAGL protein was prepared by transforming ECOS™ Competent E. coli BL21(DE3) (Nippon Gene Co., Ltd.) with the pET21HH(V)/His-hMGLLv2 plasmid prepared above. Escherichia coli obtained by transformation was inoculated to 10 mL of LB medium (1% peptone, 0.5% yeast extract, 0.5% sodium chloride, 0.01% ampicillin), and cultured at 30° C. for 16 hr. […] When the turbidity of the culture medium reached about 500 Klett unit, the culture temperature was lowered to 16° C., isopropyl-β-D-thiogalactopyranoside (IPTG) was added to a final concentration of 1 mM, and the mixture was further cultured for 19 hr. After the completion of culture, the culture medium was centrifuged (4° C., 6,000 rpm, 10 min) to give His-hMAGL expression Escherichia coli. Then, His-hMAGL expression Escherichia coli was suspended in 50 mM Tris-HCl (pH 8.0, 100 ml) containing 1% Triton X-100, 20 mM imidazole, 3 mM DTT, 5 U/mL Benzonase (Merck) and 150 mM NaCl, sufficiently cooled, and subjected to sonication at […]=60%, 15 sec/ON, 30 sec/OFF for 3 min using ¾″ solid type crushed horn of BRANSON Digital Sonifier 450 (Central Scientific Commerce, Inc.). Furthermore, the homogenate was centrifuged (4° C., 15,000 rpm, 15 min) and the supernatant was obtained. As the purification apparatus, AKTA explorer 10s (GE Healthcare Japan Corporation) was used at 4° C. To the obtained supernatant was added 5M NaCl to the final salt concentration of 0.3 M, and the mixture was flown through and adsorbed to 5 mL of Ni-NTA Superflow Cartridges (QIAGEN) equilibrated in advance with buffer A (50 mM Tris-HCl (pH 8.0) containing 0.05% TritonX-100, 1 mM DTT, 300 mM NaCl). The column was sufficiently washed with buffer A containing 20 mM imidazole and His-hMAGL was eluted with buffer A containing imidazole at a final concentration of 250 mM. The eluate was further subjected to gel filtration using HiLoad 26/600 Superdex 200 pg (GE Healthcare Japan Corporation) equilibrated with 50 mM Tris-HCl pH 8.0 containing 10% glycerol, 0.05% TritonX-100, 1 mM DTT, 150 mM NaCl. The eluted fraction was concentrated by Amicon Ultra-15 10K (Merck Millipore) to give purified His-hMAGL protein. The protein concentration was measured by BCA Protein Assay Kit (Thermo Fisher Scientific) using BSA as the standard.
(3) Measurement of MAGL Inhibitory Activity
His-hMAGL obtained above was diluted with enzyme reaction buffer (10 mM Tris-HCl, pH 7.5, 1 mM EDTA, 0.1 (w/v) % Triton X-100) to a concentration of 60 ng/mL. […] Thereafter, to each well was added 750 μM p-nitrophenyl acetate (Wako Pure Chemical Industries, Ltd.) by 5 μL, and the absorbance at 405 nm was measured every 2 minutes up to 10 minutes by EnVision (PerkinElmer). The amount of change was obtained by subtracting the absorbance measured immediately after the start of the reaction from the absorbance measured 10 min after the start of the reaction.
MAGL inhibitory rate (%) was calculated according to the following calculation formula. (1−(absorbance change amount of test compound addition group−absorbance change amount of enzyme addition-free group)[…](absorbance change amount of test compound addition-free group−absorbance change amount of enzyme addition-free group))×100

Question: For `O=C(c1nccs1)N1CCN(C2CC(=O)N(c3cccc(-c4ccc(F)cc4)c3)C2)CC1` (stereo not drawn) [Example 76, 1-(4′-fluorobiphenyl-3-yl)-4-(4-(1,3-thiazol-2-ylcarbonyl)piperazin-1-yl)pyrrolidin-2-one], which inhibition at 10 µM is on record?
Answer: Its inhibition at 10 µM is 95%.

Question: With `O=C(c1nccs1)N1CCN(C2CC(=O)N(c3cccc(Nc4ccc(F)cc4)c3)C2)CC1` (stereo not drawn) [Example 77, 1-(3-((4-Fluorophenyl)amino)phenyl)-4-(4-(1,3-thiazol-2-ylcarbonyl)piperazin-1-yl)pyrrolidin-2-one] as the molecule, how does the inhibition at 10 µM read?
Answer: Its inhibition at 10 µM is 96%.

Question: With `O=C(c1nccs1)N1CCN(C2CC(=O)N(c3cccc(Oc4ccc(F)cc4)c3)C2)CC1` (stereo not drawn) [Example 79, 1-(3-(4-Fluorophenoxy)phenyl)-4-(4-(1,3-thiazol-2-ylcarbonyl)piperazin-1-yl)pyrrolidin-2-one] as the molecule, how does the inhibition at 10 µM read?
Answer: The inhibition at 10 µM was 95%.

Question: For `O=C(c1nccs1)N1CCN([C@@H]2CC(=O)N(c3ccc4c(ccn4-c4ncc(C(F)(F)F)cn4)c3)C2)CC1` [Example 80, (4R)-4-(4-(1,3-Thiazol-2-ylcarbonyl)piperazin-1-yl)-1-(1-(5-(trifluoromethyl)pyrimidin-2-yl)-1H-indol-5-yl)pyrrolidin-2-one], which inhibition at 10 µM is on record?
Answer: Its inhibition at 10 µM is 100%.

Question: With `O=C(c1nccs1)N1CCN(C2CC(=O)N(c3ccc4c(cnn4-c4ccc(F)cn4)c3)C2)CC1` (stereo not drawn) [Example 81, 1-(1-(5-fluoropyridin-2-yl)-1H-indazol-5-yl)-4-(4-(1,3-thiazol-2-ylcarbonyl)piperazin-1-yl)pyrrolidin-2-one] as the molecule, how does the inhibition at 10 µM read?
Answer: Its inhibition at 10 µM is 97%.

Question: `O=C(c1nccs1)N1CCN(C2CC(=O)N(c3ccc4c(ccn4-c4ccc(F)cn4)c3)C2)CC1` (stereo not drawn) [Example 82, 1-(1-(5-fluoropyridin-2-yl)-1H-indol-5-yl)-4-(4-(1,3-thiazol-2-ylcarbonyl)piperazin-1-yl)pyrrolidin-2-one] was tested. Which inhibition at 10 µM did it give?
Answer: The inhibition at 10 µM was 95%.

Question: `O=C(c1nccs1)N1CCN(C2CC(=O)N(c3ccc4c(ccn4-c4ncc(F)cn4)c3)C2)CC1` (stereo not drawn) [Example 83, 1-(1-(5-fluoropyrirnidin-2-yl)-1H-indol-5-yl)-4-(4-(1,3-thiazol-2-ylcarbonyl)piperazin-1-yl)pyrrolidin-2-one] was tested. Which inhibition at 10 µM did it give?
Answer: Its inhibition at 10 µM is 96%.

Question: For `O=C(c1nccs1)N1CCN(C2CC(=O)N(c3ccc4c(ccn4-c4ncc(Cl)cn4)c3)C2)CC1` (stereo not drawn) [Example 84, 1-(1-(5-chloropyrirnidin-2-yl)-1H-indol-5-yl)-4-(4-(1,3-thiazol-2-ylcarbonyl)piperazin-1-yl)pyrrolidin-2-one], which inhibition at 10 µM is on record?
Answer: The inhibition at 10 µM was 96%.

Question: For `O=C(c1nccs1)N1CCN(C2CC(=O)N(c3ccc4c(cnn4-c4ccc(F)cc4)c3)C2)CC1` (stereo not drawn) [Example 85, 1-(1-(4-Fluorophenyl)-1H-indazol-5-yl)-4-(4-(1,3-thiazol-2-ylcarbonyl)piperazin-1-yl)pyrrolidin-2-one], which inhibition at 10 µM is on record?
Answer: Its inhibition at 10 µM is 99%.

Question: `O=C(c1nccs1)N1CCN(C2CC(=O)N(c3ccc4c(cnn4-c4ccc(Cl)cn4)c3)C2)CC1` (stereo not drawn) [Example 86, 1-(1-(5-chloropyridin-2-yl)-1H-indazol-5-yl)-4-(4-(1,3-thiazol-2-ylcarbonyl)piperazin-1-yl)pyrrolidin-2-one] was tested. Which inhibition at 10 µM did it give?
Answer: The inhibition at 10 µM was 99%.

Question: For `O=C(c1nccs1)N1CCN(C2CC(=O)N(c3ccc4c(ccn4-c4ccc(Cl)cn4)c3)C2)CC1` (stereo not drawn) [Example 87, 1-(1-(5-chloropyridin-2-yl)-1H-indol-5-yl)-4-(4-(1,3-thiazol-2-ylcarbonyl)piperazin-1-yl)pyrrolidin-2-one], which inhibition at 10 µM is on record?
Answer: Its inhibition at 10 µM is 98%.

Target: T1, human MAGL (His-hMAGL)
Experiment: Measurement of MAGL inhibitory activity by mass spectrometry
Format: biochemical
Conditions: 10 μM test compound; substrate 2-arachidonylglycerol, arachidonic acid by RapidFire-mass spectrometry
Outline: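 His-tagged human MAGL was reacted with 150 μM 2-arachidonylglycerol substrate (stock, added by 5 μL) for 10 min at room temperature, then stopped with formic acid. Arachidonic acid product was quantified by RapidFire–triple-quadrupole MS in negative SRM mode, corrected by arachidonic acid-d8, and converted to percent inhibition.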

Question: `O=C(c1nccs1)N1CCN([C@@H]2CC(=O)N(c3ccc4c(ccn4-c4ncc(C(F)(F)F)cn4)c3)C2)CC1` [Example 80, (4R)-4-(4-(1,3-Thiazol-2-ylcarbonyl)piperazin-1-yl)-1-(1-(5-(trifluoromethyl)pyrimidin-2-yl)-1H-indol-5-yl)pyrrolidin-2-one] was tested. Which inhibition at 10 µM did it give?
Answer: Its inhibition at 10 µM is 97%.

System: Gfap, IL-1β, IL-6 gene expression in hippocampus
Experiment: Measurement of gene expression in hippocampus of kainic acid intraventricular administration rat
Format: in vivo
Conditions: SD rats, 30 mg/kg by gavage, hippocampus 24 hr after administration

Question: What does the source list for `O=C(c1nccs1)N1CCN([C@@H]2CC(=O)N(c3ccc4c(ccn4-c4ncc(C(F)(F)F)cn4)c3)C2)CC1` [compound 1, (4R)-4-(4-(1,3-thiazol-2-ylcarbonyl)piperazin-1-yl)-1-(1-(5-(trifluoromethyl)pyrimidin-2-yl)-1H-indol-5-yl)pyrrolidin-2-one]?
Answer: effect to decrease expression of a gene of glial fibrillary acidic protein (GFAP) (FIG. 3): decrease expression; effect to decrease expression of a gene of interleukin 1β (IL-1β) (FIG. 4): decrease expression; effect to decrease expression of a gene of interleukin 6 (IL-6) (FIG. 5): decrease expression

From patent US9624170B2, “4-(piperrazin-1-yl)-pyrrolidin-2-one compounds as monoacylglycerol lipase (MAGL) inhibitors” (TAKEDA PHARMACEUTICAL COMPANY LIMITED, priority 2013, dated 2017)
